Several values for one entry are separate records, joined by “and”; a condition that tells them apart may be missing. Equal entries are not always repeated.

For one experiment, the target named is EeAChE (Electrophorus electricus, UniProt O42275). The experiment in a line: biochemical. It is filed as biochemical. As to conditions: read-out: AChE % inhibition at 10 μM (no IC50 given); EeAChE; 10 μM. On the procedure: (§1) The evaluation of the activity of compounds against both EeAChE and eqBuChE was evaluated following the Ellman spectrophotometric method. Briefly, the reaction happens in a final volume of 3 mL of a 0.1 M phosphate-buffered solution at pH = 8.0, containing 5,5′-dithiobis-2-nitrobenzoic acid, EeAChE or eqBuChE, tested compound and bovine albumin serum phosphate-buffered (pH = 8) solution After this pre-incubation period, acetylthiocholine iodide or butyrylthiocholine iodide was added, allowing 15 min of additional incubation time.
Chain of EeAChE (O42275 24-633): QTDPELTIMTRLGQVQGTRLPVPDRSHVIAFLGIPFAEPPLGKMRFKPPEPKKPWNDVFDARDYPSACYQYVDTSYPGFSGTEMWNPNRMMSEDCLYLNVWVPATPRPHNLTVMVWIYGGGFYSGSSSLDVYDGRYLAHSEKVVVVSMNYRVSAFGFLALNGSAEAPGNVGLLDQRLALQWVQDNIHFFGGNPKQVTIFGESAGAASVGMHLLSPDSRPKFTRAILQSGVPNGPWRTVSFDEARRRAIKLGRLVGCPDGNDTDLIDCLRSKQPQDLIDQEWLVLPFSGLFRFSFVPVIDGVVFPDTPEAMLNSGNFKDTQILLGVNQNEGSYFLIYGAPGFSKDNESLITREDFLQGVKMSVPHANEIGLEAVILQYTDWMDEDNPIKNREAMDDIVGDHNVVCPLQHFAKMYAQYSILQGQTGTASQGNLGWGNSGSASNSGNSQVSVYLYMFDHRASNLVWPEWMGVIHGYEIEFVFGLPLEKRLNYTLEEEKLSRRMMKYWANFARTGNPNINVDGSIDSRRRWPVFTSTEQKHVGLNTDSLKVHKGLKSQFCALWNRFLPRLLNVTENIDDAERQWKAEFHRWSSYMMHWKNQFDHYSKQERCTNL

For a further experiment, the target named is eqBuChE (Equus caballus, UniProt P81908). Description: biochemical. As to conditions: for inhibition at 10 µM: read-out: BuChE % inhibition at 10 μM (no IC50 given), 10 μM; for IC50: mean ± SEM, read-out: BuChE IC50. Here is the method:
as §1

For a further experiment, the system named is Ca^+2 channel. The experiment in a line: Calcium channel blockade (FLIPR Calcium 6, KCl/CaCl2-stimulated SH-SY5Y cells). As to conditions: 10 μM; SH-SY5Y cells stimulated with KCl/CaCl2. It is filed as cell-based. Here is the method:
The calcium channel blockade assay was performed as described earlier. Briefly, the SH-SY5Y cells were seeded out in 96-well dark-walled plates at a density of 1 × 10^5 cells per well. After 24 h, the cells were loaded with FLIPR Calcium 6 indicator (Molecular Devices) for 2 h at 37 °C, according to the manufacturer’s protocol. Compounds were dissolved in an appropriate amount of DMSO at 10 mM concentration and diluted to a final concentration of 10 μM in Hanks′ Balanced Salt Solution (HBSS, Thermo Fisher Scientific) buffered with HEPES (Sigma-Aldrich) at pH = 7.4, and as such used were for treatment of indicator loaded cells (10 min at 37 °C). […] The baseline fluorescence was recorded for 5 s. Then, the cells were stimulated with KCl/CaCl2 solution (in HBSS, final concentration of KCl and CaCl2 was 90 and 5 mM, respectively) and the fluorescence was recorded for a further 30 s. Dimethyl sulfoxide 1% solution in HBSS was used as a vehicle control. Nimodipine (Cayman Chemical Company) was used as a reference inhibitor at 10 μM and compounds were assessed at the same final concentration in triplicate in three independent experiments. Fluorescent intensity values were normalized to the baseline.

Experiment [1] in a line: Oxygen radical absorbance capacity assay (ORAC-FL). As to conditions: Trolox equivalents, mean (n = 3) ± SEM. Here is the method:
Briefly, fluorescein and antioxidant were incubated in a black 96-well microplate (Nunc) for 15 min at 37 °C. 2,2′-Azobis(amidinopropane) dihydrochloride was then added quickly using the built-in injector of Varioskan Flash plate reader (Thermo Scientific). […] All the reactions were made in triplicate and at least three different assays were performed for each sample [9, 30].

The subject of experiment [2] is SH-SY5Y cells. The experiment in a line: Neuroprotection against H2O2-induced cell death in SH-SY5Y cells (MTS). The note with it: for H2O2 (%) neuroprotection: H2O2 200 µM. It is filed as cell-based. Here is the method:
(§2) The most balanced compounds were then submitted to evaluation of their neuroprotection activity. For this purpose, cytotoxicity was induced by H2O2, a well-known toxic responsible for the generation of ROS and by mitochondrial respiratory chain blockers oligomycin rotenone (O/R). Prior to the neuroprotective assay, the effect of the compounds on cell viability was evaluated at 1 and 10 µM, showing no cytotoxicity against SH-SY5Y cells.
(§3) SH-SY5Y cells were seeded in 96-well culture plates at a density of 12 × 10^4 cells per well in DMEM/F12 (1:1) medium supplemented with 10% fetal bovine serum, 1X non-essential amino acids, 100 units/mL penicillin and […] streptomycin (Dutscher, France). After 48 h of incubation, the cultures were treated with 100 µl of the test compounds or DMSO (0.1%) in the same medium. After 24 h, the cells were co-incubated with H2O2 (200 µM) or O/R (O at 10 µM/R at 30 µM) with or without the tested compounds at noncytotoxic concentrations for an additional period of 24 h. The percentage of cell viability was measured using CellTiter 96 AQueous Non-Radioactive Cell Proliferation (MTS) Assay (Promega, France).

The subject of experiment [3] is SH-SY5Y cells. Description: Neuroprotection against oligomycin A/rotenone (O/R)-induced cell death in SH-SY5Y cells (MTS). In kind it is cell-based. As to conditions: for O/R (%) neuroprotection: O at 10 µM/R at 30 µM. On the procedure:
as §2, §3

Chain of eqBuChE (P81908 whole entry): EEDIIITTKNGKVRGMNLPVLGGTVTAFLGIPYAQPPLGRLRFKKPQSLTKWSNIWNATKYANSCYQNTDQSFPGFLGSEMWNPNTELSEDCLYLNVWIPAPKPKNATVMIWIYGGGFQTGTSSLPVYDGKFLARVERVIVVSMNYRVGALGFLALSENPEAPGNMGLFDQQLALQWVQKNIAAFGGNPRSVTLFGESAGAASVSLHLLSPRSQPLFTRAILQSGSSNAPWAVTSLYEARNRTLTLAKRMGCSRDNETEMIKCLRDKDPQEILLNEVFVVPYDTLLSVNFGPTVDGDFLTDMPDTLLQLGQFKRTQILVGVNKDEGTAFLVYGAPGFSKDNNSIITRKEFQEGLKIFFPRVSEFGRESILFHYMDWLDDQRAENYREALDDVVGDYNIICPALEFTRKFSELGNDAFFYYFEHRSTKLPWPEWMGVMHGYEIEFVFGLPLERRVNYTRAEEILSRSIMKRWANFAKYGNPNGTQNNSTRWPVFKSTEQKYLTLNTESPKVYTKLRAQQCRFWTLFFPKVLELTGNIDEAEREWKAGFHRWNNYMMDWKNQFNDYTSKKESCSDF

The term inhibition denotes the percentage by which the read-out fell short of the control. Regarding `CCOC(=O)C1=C(C)NC(C)=C(C(=O)OCC)C1c1ccc(OCCCCCN2CCOCC2)cc1` [3a, Diethyl-2,6-dimethyl-4-(4-((5-morpholinopentyl)oxy)phenyl)-1,4-dihydropyridine-3,5-dicarboxylate], the inhibition at 10 µM at EeAChE and at eqBuChE was below 50% throughout. Further, the “(%) Ca Flux Inhibition” value in the experiment with Ca^+2 channel was determined as 18.58%. In addition, the ORAC in experiment [1] is reported as 1.31 ± 0.01 TE.
For the molecule `COC(=O)C1=C(C)NC(C)=C(C(=O)OC)C1c1ccc(OCCCCCN2CCOCC2)cc1` [3b, Dimethyl-2,6-dimethyl-4-(4-((5-morpholinopentyl)oxy)phenyl)-1,4-dihydropyridine-3,5-dicarboxylate], the inhibition at 10 µM at EeAChE and on eqBuChE was below 50% each time. In addition, the “(%) Ca Flux Inhibition” value with Ca^+2 channel turned out to be 31.89%. The ORAC in experiment [1] is 2.59 TE and 2.59 ± 0.04 TE.
Broadly, the IC50 is the concentration that inhibits the measured activity by half. Regarding `CCOC(=O)C1=C(C)NC(C)=C(C(=O)OCC)C1c1ccc(OCCCCCN(CC)CC)cc1` [3c, Diethyl-4-(4-((5-(diethylamino)pentyl)oxy)phenyl)-2,6-dimethyl-1,4-dihydropyridine-3,5-dicarboxylate], the inhibition at 10 µM on EeAChE was below 50%. The IC50 at eqBuChE was 4.6 ± 0.1 µM. Also, the “(%) Ca Flux Inhibition” value in the experiment on Ca^+2 channel is given as 58.21%. Moreover, the ORAC in experiment [1] is 2.64 TE and 2.64 ± 0.04 TE. The “neuroprotective effect against H2O2 (in words)” value with SH-SY5Y cells [2] was “modest”. Besides, the results for the “H2O2 (%) neuroprotection” value in the experiment with SH-SY5Y cells [2] (0.3 µM) and in the experiment on SH-SY5Y cells [2] (1 µM) were 12.37 ± 0.08% and 24.17 ± 0.12%, respectively. Besides, the “neuroprotective effect against O/R (in words)” value in the experiment with SH-SY5Y cells [3] was “modest”. Besides, the “O/R (%) neuroprotection” value in the experiment with SH-SY5Y cells [3] (0.3 µM) was found to be 22.27 ± 0.09%; in the experiment with SH-SY5Y cells [3] (1 µM) it was 25.87 ± 0.04%.
As to `CCN(CC)CCCCCOc1ccc(C2C(C(=O)OC)=C(C)NC(C)=C2C(=O)OC)cc1` [3d, Dimethyl-4-(4-((5-(diethylamino)pentyl)oxy)phenyl)-2,6-dimethyl-1,4-dihydropyridine-3,5-dicarboxylate], the inhibition at 10 µM on EeAChE and on eqBuChE was below 50% each time. For the same molecule, the “(%) Ca Flux Inhibition” value with Ca^+2 channel came to 39.55%. The ORAC in experiment [1] stood at 1.93 ± 0.68 TE.
As for `CCOC(=O)C1=C(C)NC(C)=C(C(=O)OCC)C1c1ccc(OCCCCCN2CCN(C)CC2)cc1` [3e, Diethyl-2,6-dimethyl-4-(4-((5-(4-methylpiperazin-1-yl)pentyl)oxy)phenyl)-1,4-dihydropyridine-3,5-dicarboxylate], the inhibition at 10 µM on EeAChE and on eqBuChE was below 50% in each case. In the experiment on Ca^+2 channel, the “(%) Ca Flux Inhibition” value is reported as 40.51%. Further, the ORAC in experiment [1] is recorded as 1.78 ± 0.00 TE.
As for `COC(=O)C1=C(C)NC(C)=C(C(=O)OC)C1c1ccc(OCCCCCN2CCN(C)CC2)cc1` [3f, Dimethyl-2,6-dimethyl-4-(4-((5-(4-methylpiperazin-1-yl)pentyl)oxy)phenyl)-1,4-dihydropyridine-3,5-dicarboxylate], the inhibition at 10 µM at EeAChE and at eqBuChE was below 50% in each case. Also, the “(%) Ca Flux Inhibition” value in the experiment with Ca^+2 channel is recorded as 38.4%. Further, the ORAC in experiment [1] was 1.38 ± 0.02 TE.
For the molecule `CCOC(=O)C1=C(C)NC(C)=C(C(=O)OCC)C1c1ccc(OCCCCCN2CCC(Cc3ccccc3)CC2)cc1` [3g, Diethyl-4-(4-((5-(4-benzylpiperidin-1-yl)pentyl)oxy)phenyl)-2,6-dimethyl-1,4-dihydropyridine-3,5-dicarboxylate], the inhibition at 10 µM at EeAChE and at eqBuChE was below 50% in each case. Also, the “(%) Ca Flux Inhibition” value in the experiment with Ca^+2 channel came out at 53.6%. For the same molecule, the ORAC in experiment [1] stood at 2.24 ± 0.04 TE.
For `CCOC(=O)C1=C(C)NC(C)=C(C(=O)OCC)C1c1ccc(OCCCCCCN2CCOCC2)cc1` [3i, 3,5-Ethyl-2,6-dimethyl-4-(4-{[6-(morpholin-4-yl)hexyl]oxy}phenyl)-1,4-dihydropyridine-3,5-dicarboxylate], the inhibition at 10 µM on EeAChE and at eqBuChE was below 50% in each case. The “(%) Ca Flux Inhibition” value in the experiment on Ca^+2 channel is on record as 47.55%. Moreover, in experiment [1], the ORAC turned out to be 1.22 ± 0.02 TE.
Consider `COC(=O)C1=C(C)NC(C)=C(C(=O)OC)C1c1ccc(OCCCCCCN2CCOCC2)cc1` [3j, 3,5-Dimethyl-2,6-dimethyl-4-(4-{[6-(morpholin-4-yl)hexyl]oxy}phenyl)-1,4-dihydropyridine-3,5-dicarboxylate], for which the inhibition at 10 µM on EeAChE and at eqBuChE was below 50% throughout. For the same molecule, the “(%) Ca Flux Inhibition” value with Ca^+2 channel is listed as 52.57%. Moreover, in experiment [1], the ORAC was determined as 0.99 ± 0.09 TE.
Consider `CCOC(=O)C1=C(C)NC(C)=C(C(=O)OCC)C1c1ccc(OCCCCCCN(CC)CC)cc1` [3k, 3,5-Diethyl-4-(4-{[6-(diethylamino)hexyl]oxy}phenyl)–2,6–dimethyl-1,4–dihydropyridine-3,5-dicarboxylate], for which the inhibition at 10 µM on EeAChE was below 50%. Also, the IC50 at eqBuChE came to 9.6 ± 0.3 µM. Moreover, the “(%) Ca Flux Inhibition” value in the experiment on Ca^+2 channel is recorded as 31.66%. For the same molecule, the ORAC in experiment [1] came to 1.21 ± 0.12 TE.
Turning to `CCN(CC)CCCCCCOc1ccc(C2C(C(=O)OC)=C(C)NC(C)=C2C(=O)OC)cc1` [3l, 3,5-Dimethyl-4-(4-{[6-(diethylamino)hexyl]oxy}phenyl)-2,6–dimethyl-1,4–dihydropyridine-3,5-dicarboxylate], the inhibition at 10 µM at EeAChE is below 50%. Further, the half-inhibitory concentration (IC50) on eqBuChE was 8.7 ± 0.1 µM. For the same molecule, the “(%) Ca Flux Inhibition” value in the experiment on Ca^+2 channel is 39.74%. For the same molecule, the ORAC in experiment [1] was 0.91 TE and 0.91 ± 0.01 TE.
Consider `COC(=O)C1=C(C)NC(C)=C(C(=O)OC)C1c1ccc(OCCCCCCN2CCN(C)CC2)cc1` [3n, 3,5-Dimethyl-2,6-dimethyl-4-(4-{[6-(4-methylpiperazin-1-yl)hexyl]oxy}phenyl)-1,4-dihydro-pyridine-3,5-dicarboxylate], for which the inhibition at 10 µM at EeAChE and on eqBuChE was below 50% each time. Also, the “(%) Ca Flux Inhibition” value in the experiment on Ca^+2 channel is on record as 28.9%. Also, the ORAC in experiment [1] stood at 1.39 ± 0.12 TE.
As to `CCOC(=O)C1=C(C)NC(C)=C(C(=O)OCC)C1c1ccc(OCCCCCCN2CCC(Cc3ccccc3)CC2)cc1` [3o], the inhibition at 10 µM on EeAChE and on eqBuChE was below 50% throughout. Moreover, the “(%) Ca Flux Inhibition” value in the experiment with Ca^+2 channel is reported as 80.19%. Besides, in experiment [1], the ORAC worked out at 1.36 ± 0.01 TE.
In the case of `COC(=O)C1=C(C)NC(C)=C(C(=O)OC)C1c1ccc(OCCCCCCN2CCC(Cc3ccccc3)CC2)cc1` [3p, 3,5-Dimethyl-4-(4-{[6-(4-benzylpiperidin-1-yl)hexyl]oxy}phenyl)-2,6-dimethyl-1,4-dihydro-pyridine-3,5-dicarboxylate], the inhibition at 10 µM at EeAChE and at eqBuChE was below 50% throughout. The “(%) Ca Flux Inhibition” value with Ca^+2 channel came to 78.13%. Besides, in experiment [1], the ORAC was 2.28 ± 0.01 TE.
In the case of `COCCOC(=O)C1=C(C)NC(C)=C(C(=O)OC(C)C)C1c1cccc([N+](=O)[O-])c1` (stereo not drawn) [NIM, nimodipine, reference compound], the “(%) Ca Flux Inhibition” value with Ca^+2 channel is 47.91%.

Source of the values: article PMC7589057, “Synthesis of Hantzsch Adducts as Cholinesterases and Calcium Flux inhibitors, Antioxidants and Neuroprotectives” (International Journal of Molecular Sciences, 2020).
